pIC50: −log10 of the molar value.
Biological target: T1, human P2X4 (Homo sapiens, UniProt Q99571)
T1 sequence (Q99571 1-388): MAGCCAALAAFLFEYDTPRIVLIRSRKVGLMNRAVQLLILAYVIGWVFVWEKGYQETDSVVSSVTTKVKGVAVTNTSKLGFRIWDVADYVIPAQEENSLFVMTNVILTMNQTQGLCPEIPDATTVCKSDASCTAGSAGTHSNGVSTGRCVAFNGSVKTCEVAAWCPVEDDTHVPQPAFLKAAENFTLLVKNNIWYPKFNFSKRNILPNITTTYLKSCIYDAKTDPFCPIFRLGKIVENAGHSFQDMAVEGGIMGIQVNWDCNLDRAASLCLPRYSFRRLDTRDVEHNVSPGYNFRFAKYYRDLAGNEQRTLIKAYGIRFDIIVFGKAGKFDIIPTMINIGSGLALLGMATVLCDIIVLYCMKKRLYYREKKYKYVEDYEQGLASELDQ
Test: Human P2X4 HEK Cell FLIPR Assay
Format: cell-based
Conditions: agonist Bz-ATP at EC80; for Emax: HEK293, HEK293 cells, percentage of maximal inhibition, read-out: Human P2X4 HEK Cells (FLIPR Assay) avg Efficacy [%]; for pIC50: HEK293 cells, individual values listed where some fall outside detection range
Outline: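 HEK293 cells stably expressing human P2X4, Fluo8-AM loaded 30 min at 37° C, then compound 30 min at room temperature (0.5% DMSO, pH 7.4 buffer with 1.8 mM CaCl2). Bz-ATP at its daily-determined EC80 added; calcium fluorescence read over 120 sec; IC50 from peak RFU normalized to agonist control, triplicates.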

COc1ccccc1CC(=O)Nc1ccc(-c2cnn(C(F)F)c2)c(S(N)(=O)=O)c1 [Example 226, N-{4-[1-(Difluoromethyl)-1H-pyrazol-4-yl]-3-sulfamoylphenyl}-2-(2-methoxyphenyl)-acetamide]
Emax: 104% | pIC50: 6.95

NS(=O)(=O)c1cc(NC(=O)Cc2ccc(F)cc2)ccc1-c1cnn(C(F)F)c1 [Example 227, N-{4-[1-(Difluoromethyl)-1H-pyrazol-4-yl]-3-sulfamoylphenyl}-2-(4-fluorophenyl)-acetamide]
Emax: 95% | pIC50: 6.39

NS(=O)(=O)c1cc(NC(=O)Cc2cc(F)ccc2Cl)ccc1-c1cnn(C(F)F)c1 [Example 228, 2-(2-Chloro-5-fluorophenyl)-N-{4-[1-(difluoromethyl)-1H-pyrazol-4-yl]-3-sulfamoyl-phenyl}acetamide]
Emax: 92% | pIC50: 7.43

NS(=O)(=O)c1cc(NC(=O)Cc2cccc(Cl)c2Cl)ccc1-c1cnn(C(F)F)c1 [Example 229, 2-(2,3-Dichlorophenyl)-N-{4-[1-(difluoromethyl)-1H-pyrazol-4-yl]-3-sulfamoylphenyl}-acetamide]
Emax: 94% | pIC50: 7.80

NS(=O)(=O)c1cc(NC(=O)Cc2ccncc2Cl)ccc1-c1cnn(C(F)F)c1 [Example 230, 2-(3-Chloropyridin-4-yl)-N-{4-[1-(difluoromethyl)-1H-pyrazol-4-yl]-3-sulfamoyl-phenyl}acetamide]
Emax: 90% | pIC50: 6.45

NS(=O)(=O)c1cc(NC(=O)Cc2ccccc2Cl)ccc1-n1cnc(C2CCC2)n1 [Example 231, 2-(2-Chlorophenyl)-N-[4-(3-cyclobutyl-1H-1,2,4-triazol-1-yl)-3-sulfamoylphenyl]-acetamide]
Emax: 81% | pIC50: 7.29

CC(=O)c1cnn(-c2ccc(NC(=O)Cc3ccccc3Cl)cc2S(N)(=O)=O)c1 [Example 232, N-[4-(4-Acetyl-1H-pyrazol-1-yl)-3-sulfamoylphenyl]-2-(2-chlorophenyl)acetamide]
Emax: 89% | pIC50: 7.09

CC(C)c1ncn(-c2ccc(NC(=O)Cc3ccccc3Cl)cc2S(N)(=O)=O)n1 [Example 233, 2-(2-Chlorophenyl)-N-[4-(3-isopropyl-1H-1,2,4-triazol-1-yl)-3-sulfamoylphenyl]-acetamide]
Emax: 80% | pIC50: 7.03

NS(=O)(=O)c1cc(NC(=O)Cc2ccccc2C(F)(F)F)ccc1-n1cc(Cl)cn1 [Example 234, N-[4-(4-Chloro-1H-pyrazol-1-yl)-3-sulfamoylphenyl]-2-[2-(trifluoromethyl)-phenyl]acetamide]
Emax: 96% | pIC50: 7.03

CCOC(=O)c1cnn(-c2ccc(NC(=O)Cc3ccccc3Cl)cc2S(N)(=O)=O)c1 [Example 235, Ethyl 1-(4-{[(2-chlorophenyl)acetyl]amino}-2-sulfamoylphenyl)-1H-pyrazole-4-carboxylate]
Emax: 35% | pIC50: < 4.60

CCOC(=O)c1cnn(-c2ccc(NC(=O)Cc3ccccc3F)cc2S(N)(=O)=O)c1 [Example 236, Ethyl 1-(4-{[(2-fluorophenyl)acetyl]amino}-2-sulfamoylphenyl)-1H-pyrazole-4-carboxylate]
Emax: 54% | pIC50: 7.44

CC(C)(O)c1cnn(-c2ccc(NC(=O)Cc3ccccc3F)cc2S(N)(=O)=O)c1 [Example 237, 2-(2-Fluorophenyl)-N-{4-[4-(2-hydroxypropan-2-yl)-1H-pyrazol-1-yl]-3-sulfamoyl-phenyl}acetamide]
Emax: 72% | pIC50: 5.72

CC(C)(O)c1cnn(-c2ccc(NC(=O)Cc3ccccc3Cl)cc2S(N)(=O)=O)c1 [Example 238, 2-(2-Chlorophenyl)-N-{4-[4-(2-hydroxypropan-2-yl)-1H-pyrazol-1-yl]-3-sulfamoyl-phenyl}acetamide]
Emax: 76% | pIC50: 6.17

NS(=O)(=O)c1cc(NC(=O)Cc2cccnc2Cl)ccc1-n1cnc(C(F)(F)F)n1 [Example 239, 2-(2-Chloropyridin-3-yl)-N-{3-sulfamoyl-4-[3-(trifluoromethyl)-1H-1,2,4-triazol-1-yl]phenyl}acetamide]
Emax: 81% | pIC50: 5.59

CN(C(=O)Cc1ccccc1Cl)c1ccc(-n2cc(C(F)(F)F)cn2)c(S(N)(=O)=O)c1 [Example 240, 2-(2-Chlorophenyl)-N-methyl-N-{3-sulfamoyl-4-[4-(trifluoromethyl)-1H-pyrazol-1-yl]phenyl}acetamide]
Emax: 93% | pIC50: 5.46

NS(=O)(=O)c1cc(NC(=O)Cc2ccccc2Cl)ccc1-n1ncc(C(F)(F)F)n1 [Example 241, 2-(2-Chlorophenyl)-N-{3-sulfamoyl-4-[4-(trifluoromethyl)-2H-1,2,3-triazol-2-yl]-phenyl}acetamide]
Emax: 92% | pIC50: 7.32

NS(=O)(=O)c1cc(NC(=O)Cc2ccccc2Cl)ccc1-n1cc(C(F)(F)F)nn1 [Example 242, 2-(2-Chlorophenyl)-N-{3-sulfamoyl-4-[4-(trifluoromethyl)-1H-1,2,3-triazol-1-yl]-phenyl}acetamide]
Emax: 86% | pIC50: 7.43

N#Cc1ccc(Cl)c(CC(=O)Nc2ccc(-n3cc(C(F)(F)F)cn3)c(S(N)(=O)=O)c2)c1 [Example 243, 2-(2-Chloro-5-cyanophenyl)-N-{3-sulfamoyl-4-[4-(trifluoromethyl)-1H-pyrazol-1-yl]-phenyl}acetamide]
Emax: 87% | pIC50: 6.30

N#Cc1cc(NC(=O)Cc2ccccc2Cl)cc(S(N)(=O)=O)c1-n1cc(C(F)(F)F)cn1 [Example 244, 2-(2-Chlorophenyl)-N-{3-cyano-5-sulfamoyl-4-[4-(trifluoromethyl)-1H-pyrazol-1-yl]-phenyl}acetamide]
Emax: 73% | pIC50: 6.85

NS(=O)(=O)c1cc(NC(=O)Cc2cc(Br)ccc2Cl)ccc1-n1cc(C(F)(F)F)cn1 [Example 245, 2-(5-Bromo-2-chlorophenyl)-N-{3-sulfamoyl-4-[4-(trifluoromethyl)-1H-pyrazol-1-yl]phenyl}acetamide]
Emax: 88% | pIC50: 6.32

NS(=O)(=O)c1cc(NC(=O)Cc2ccccc2F)ccc1-n1cnc(Cl)n1 [Example 246, N-[4-(3-Chloro-1H-1,2,4-triazol-1-yl)-3-sulfamoylphenyl]-2-(2-fluorophenyl)acetamide]
Emax: 100% | pIC50: 6.60

N#Cc1cc(NC(=O)Cc2ccccc2Cl)cc(S(N)(=O)=O)c1-n1cc(F)cn1 [Example 247, 2-(2-Chlorophenyl)-N-[3-cyano-4-(4-fluoro-1H-pyrazol-1-yl)-5-sulfamoyl-phenyl]acetamide]
Emax: 64% | pIC50: 7.16

Cc1cnn(-c2ccc(NC(=O)Cc3ccccc3Cl)cc2S(N)(=O)=O)c1 [Example 248, 2-(2-Chlorophenyl)-N-[4-(4-methyl-1H-pyrazol-1-yl)-3-sulfamoylphenyl]acetamide]
Emax: 74% | pIC50: 7.08

COc1ncn(-c2ccc(NC(=O)Cc3ccccc3Cl)cc2S(N)(=O)=O)n1 [Example 249, 2-(2-Chlorophenyl)-N-[4-(3-methoxy-1H-1,2,4-triazol-1-yl)-3-sulfamoylphenyl]-acetamide]
Emax: 72% | pIC50: 5.07

NS(=O)(=O)c1cc(NC(=O)Cc2ccccc2Cl)ccc1-n1cnc(C2CC2)c1 [Example 250, 2-(2-Chlorophenyl)-N-[4-(4-cyclopropyl-1H-imidazol-1-yl)-3-sulfamoylphenyl]-acetamide]
Emax: 82% | pIC50: 6.71

Reference: US11524938B2, “Aromatic sulfonamide derivatives” (Bayer Pharma Aktiengesellschaft, priority 2016, dated 2022)
